# Results from PubChem BioAssay (NCI).
#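 Assay format: 96-well plates, 48-hour exposure. At the GI50, growth is halved. TGI: concentration producing complete growth inhibition.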
# Legend:
# Assay in all cases: NCI anticancer screen, dose series, 48 h
# NCI/ADR-RES ovarian = system: NCI/ADR-RES ovarian
# MDA-MB-231 breast = system: MDA-MB-231 breast
# OVCAR-3 ovarian = system: OVCAR-3 ovarian
# NCI-H460 lung = system: NCI-H460 lung
# SNB-75 CNS = system: SNB-75 CNS
# SR leukemia = system: SR leukemia
# SNB-19 CNS = system: SNB-19 CNS
# 786-0 renal = system: 786-0 renal
# SW-620 colon = system: SW-620 colon
# PC-3 prostate = system: PC-3 prostate
# T-47D breast = system: T-47D breast
# OVCAR-5 ovarian = system: OVCAR-5 ovarian
# HOP-62 NSCLC = system: HOP-62 NSCLC
# OVCAR-4 ovarian = system: OVCAR-4 ovarian
# SK-OV-3 ovarian = system: SK-OV-3 ovarian
# ACHN renal = system: ACHN renal
# SK-MEL-28 melanoma = system: SK-MEL-28 melanoma
# HS 578T breast = system: HS 578T breast
# TK-10 renal = system: TK-10 renal
# HCT-116 colon = system: HCT-116 colon
# HCC-2998 colon = system: HCC-2998 colon
# UACC-62 melanoma = system: UACC-62 melanoma
# NCI-H522 lung = system: NCI-H522 lung
# SK-MEL-5 melanoma = system: SK-MEL-5 melanoma
# LOX IMVI melanoma = system: LOX IMVI melanoma
# SF-539 CNS = system: SF-539 CNS
# OVCAR-8 ovarian = system: OVCAR-8 ovarian
# MCF7 breast = system: MCF7 breast
# NCI-H23 lung = system: NCI-H23 lung
compound,measurement,setting,value
Oc1ccc(N=Nc2nccs2)c(O)c1,GI50,NCI/ADR-RES ovarian,2.58 µM
same,TGI,NCI/ADR-RES ovarian,9.1 µM
same,GI50,MDA-MB-231 breast,8.77 µM
same,TGI,MDA-MB-231 breast,> 100 µM
same,GI50,OVCAR-3 ovarian,2.4 µM
same,TGI,OVCAR-3 ovarian,7.37 µM
same,GI50,NCI-H460 lung,3.67 µM
same,TGI,NCI-H460 lung,17.9 µM
same,GI50,SNB-75 CNS,14.2 µM
same,TGI,SNB-75 CNS,> 100 µM
same,GI50,SR leukemia,2.12 µM
same,TGI,SR leukemia,9.8 µM
same,GI50,SNB-19 CNS,11.5 µM
same,TGI,SNB-19 CNS,53.1 µM
same,GI50,786-0 renal,3.61 µM
same,TGI,786-0 renal,27.7 µM
same,GI50,SW-620 colon,5 µM
same,TGI,SW-620 colon,22.3 µM
same,GI50,PC-3 prostate,8.08 µM
same,TGI,PC-3 prostate,48.8 µM
same,GI50,T-47D breast,4.87 µM
same,TGI,T-47D breast,40.1 µM
same,GI50,OVCAR-5 ovarian,7.84 µM
same,TGI,OVCAR-5 ovarian,29.4 µM
same,GI50,HOP-62 NSCLC,19.9 µM
same,TGI,HOP-62 NSCLC,49.8 µM
same,GI50,OVCAR-4 ovarian,3.46 µM
same,TGI,OVCAR-4 ovarian,> 100 µM
same,GI50,SK-OV-3 ovarian,6.97 µM
same,TGI,SK-OV-3 ovarian,62.6 µM
same,GI50,ACHN renal,2.96 µM
same,TGI,ACHN renal,33.8 µM
same,GI50,SK-MEL-28 melanoma,10.4 µM
same,TGI,SK-MEL-28 melanoma,30.7 µM
same,GI50,HS 578T breast,13.6 µM
same,TGI,HS 578T breast,78.1 µM
same,GI50,TK-10 renal,14 µM
same,TGI,TK-10 renal,59.3 µM
same,GI50,HCT-116 colon,2.92 µM
same,TGI,HCT-116 colon,8.95 µM
same,GI50,HCC-2998 colon,3.92 µM
same,TGI,HCC-2998 colon,15 µM
same,GI50,UACC-62 melanoma,4.6 µM
same,TGI,UACC-62 melanoma,17.6 µM
same,GI50,NCI-H522 lung,3.5 µM
same,TGI,NCI-H522 lung,13.6 µM
same,GI50,SK-MEL-5 melanoma,3.44 µM
same,TGI,SK-MEL-5 melanoma,18.4 µM
same,GI50,LOX IMVI melanoma,3.28 µM
same,TGI,LOX IMVI melanoma,18.7 µM
same,GI50,SF-539 CNS,6.66 µM
same,TGI,SF-539 CNS,28.9 µM
same,GI50,OVCAR-8 ovarian,3.75 µM
same,TGI,OVCAR-8 ovarian,23 µM
same,GI50,MCF7 breast,3.06 µM
same,TGI,MCF7 breast,15.1 µM
same,GI50,NCI-H23 lung,5.36 µM
same,TGI,NCI-H23 lung,28.7 µM
